Source: patent US12708673B2, “Methods and compositions related to peptides and proteins with c-terminal elements” (Sanford Burnham Prebys Medical Discovery Institute, priority 2008, dated 2026)
Entries after “also recorded” stand apart in the source; their conditions may differ. Ends that are not written are not given here.

How the values were obtained:
Type in all cases: cell-based, human
PPC-1 cells [1] = experiment: T7 phage binding to PPC-1 (PPC1) cells at 4° C., quantified by titration/plaque assay; conditions: for Effect of glycosaminoglycan digestion or competition on RPARPAR phage binding: data not shown
Method: (§1) FIG. 2A: Binding of T7 phage to prostate cancer cells depends on the display of a C-terminal arginine on the phage particles. PPC1 cells were incubated with T7 bacteriophage displaying derivatives of the G7 (upper graph) or RPARPAR peptide (SEQ ID NO: 2) (lower graph) at 4° C., and the bound phage was quantified by plaque assay. Binding is expressed in fold over of the non-binding G7 control phage. FIG. 2B: Phage displaying C-terminal arginine is internalized into cultured PPC1 cells (arrow, nuclear internalization; arrowhead, cytoplasmic internalization). A panel of T7 phage clones were incubated at 37° C. with PPC1 cells grown on collagen-coated coverslips, stained with anti T7 antibody and imaged by confocal microscopy.
(§2) Phage display. For in vivo phage display, mice were injected intravenously with 10^10 plaque-forming units (pfu) of T7 phage followed by perfusion of the circulatory system and determination of the bound phage in target organs by titration. For cell binding studies on cultured cells (in vitro display) and organ-derived cell suspensions (ex vivo display), the cells were incubated with 10^9 pfu of phage at 4° C., washed, lysed, and quantified by titration. Incubation at 37° C. followed by low pH wash (glycine-HCl, pH 2.5) was used to assess the amount of internalized phage.
(§3) For biopanning and phage binding studies (Hoffman, J. A. et al., 2004), cultured cells were grown to confluence and harvested with trypsin and mouse organs were dissociated using Medimachine (BD Biosciences, San Jose, CA). To measure phage binding, 10^6 cells in binding buffer (DMEM containing 1% BSA) were incubated with 10^9 pfu/ml of T7 phage for 1 hour at 4° C. The cells were washed 4 times with the binding buffer, lysed in LB bacterial growth medium containing 1% NP-40, and titrated. Phage internalization assays used the same procedure, except that the cells were incubated with the phage at 37° C., and that an acidic buffer (500 mM sodium chloride, 0.1 M glycine, 1% BSA, pH 2.5) was used instead of binding buffer in the second wash.
(§4) Centrifugation on a silicone oil cushion (1.03 g/ml) was used to separate unbound phage from cells during time course experiments. Inhibitors of phage binding and internalization (heparin, chondroitin, glycocalyx removal enzymes, endocytosis inhibitors, free peptides, quantum dots and UV-inactivated phage) were added to the cells 20 minutes prior to incubation with phage. Endocytosis inhibitors used in this study were the following: nystatin (50 μg/ml), genistein (100 μg/ml), chlorpromazine (5 μg/ml), 5-(N-ethyl-N-isopropyl) amiloride (100 μM), wortmannin (10 μM).

PPC-1 cells [2] = experiment: T7 phage internalization into PPC-1 (PPC1) cells at 37° C. (acid wash and titration, or anti-T7 staining and confocal imaging); conditions: for Phage internalization into PPC-1 cells (in words): 37° C.; for Effect of endocytosis inhibitor on uptake of CendR peptides (RPARPAR phage internalization): 90 minutes at 37° C., acid wash and titration; for Internalization into PPC1 cells compared to native iRGD phage: truncated versions of iRGD phage
Method: as §1, §2, §3, §4
Immunofluorescence staining. Cultured cells (2×10^5 cells) were grown in 6-well tissue culture plates on collagen-I coated coverslips (BD Biosciences, San Jose, CA) overnight at 37° C. in 5% CO2, and incubated with 10^8 pfu of T7 phage. The cells were fixed in 4% paraformaldehyde or cold (−20° C.) methanol, and stained with antibodies. Nuclei were stained with DAPI or […]. A polyclonal rabbit anti-T7 antibody was generated in-house as described previously (Laakkonen, P. et al. 2002b), except that an additional phage purification step using […] centrifugation was included. Other primary antibodies used were rat anti-mouse CD31 monoclonal antibody (BD Biosciences), rabbit anti-NRP-1, mouse anti-human Lamp-1, mouse anti-human caveolin (Millipore, Temecula, CA), mouse anti-NRP-1 (Miltenyi Biotec Inc., Auburn, CA), mouse anti-human EEA-1 (BD Biosciences, San Jose, CA). The secondary antibodies, Alexa594 goat antibodies to mouse, rat, and rabbit immunoglobulins and Alexa488 donkey anti-rabbit antibody were from Invitrogen (Carlsbad, CA). Cells and tissue sections were examined by confocal microscopy (Fluoview 500, Olympus America Inc., Center Valley, PA).

PPC-1 cells [3] = experiment: Binding and internalization of peptide-coated quantum dots by PPC-1 cells (confocal/fluorescence microscopy)
PPC-1 cells [4] = experiment: Protease treatment of phage followed by phage binding assay on PPC-1 cells at 4° C.
Method: 5×10^8 phage particles were incubated with indicated volumes of 2.5% trypsin at 37° C. for 20 min, followed by incubation of the phage with 1×10^6 PPC1 cells at 4° C. for 3 hours. Binding is expressed as fold over non-binding G7 control phage (the internalization of which was not affected by the trypsin treatment).
10^9 pfu of RPARPARA (SEQ ID NO:3) phage was treated with indicated amounts of trypsin at 37° C. followed by phage binding assay at 4° C. The data are representative of 4 independent binding experiments.
FIGS. 20A-20C show urokinase dependent CendR peptide. FIG. 20A: The design of a uPA-activatable CendR peptide (uCendR). […] Statistical analysis was performed with ANOVA (b); n=3; error bars indicate s.d.; triple asterisk, p<0.001. Scale bars: 20 μm.
as §3
Protease treatment of phage and qdots. 10^9 phage particles or 50 μl of peptide-coated qdots phage were treated with 50 iu of uPA, 25 μg of crystalline trypsin, 50 iu of thrombin, or 25 μg of collagenase type I (all Sigma, St. Louis, Mo).

PPC-1 cells [5] = experiment: Confocal immunofluorescence co-staining of phage/qdots with cellular markers in PPC-1 cells; conditions: immunofluorescent co-staining

For “chondroitin sulfate [reference compound]”, the “Effect of glycosaminoglycan digestion or competition on RPARPAR phage binding” value (“Effect … on RPARPAR phage binding” for short) (PPC-1 cells [1]) was “had no effect”.

In the case of chondroitinase ABC [reference compound], the “Effect … on RPARPAR phage binding” value (PPC-1 cells [1]) is reported as “had no effect”.

For RVTRPPR [RVTRPPR phage], the “Phage binding to PPC-1 cells (in words)” value (PPC-1 cells [1]; 4° C.) was “robust binding and internalization” and the “Phage internalization into PPC-1 cells (in words)” value (PPC-1 cells [2]) was “robust binding and internalization”.

In the case of RPARPAR-NH2 [RPARPAR-NH2 qdots], the “Binding and internalization of peptide-coated qdots (in words)” value (“Binding and internalization … (in words)” for short) (PPC-1 cells [3]) is reported as “abolished the binding and internalization; also recorded: blocked qdot internalization”.

With `O=c1c(-c2ccc(O)cc2)coc2cc(O)cc(O)c12` [genistein, reference compound] the “Effect of endocytosis inhibitor on uptake of CendR peptides (RPARPAR phage internalization)” value (from here on “Effect of endocytosis inhibitor”) (PPC-1 cells [2]) was “None of these inhibitors affected the uptake”.

In the case of “RPARPARA (also: biotinylated, site not given here, on streptavidin quantum dot) [RPARPARA qdots]”, the “Binding and internalization … (in words)” value (PPC-1 cells [3]) is reported as “prevented”.

In the case of RPARSGRSAGGSVA [uPA-CendR phage], the “Effect of phage treatment with collagenase-I on binding” value (PPC-1 cells [4]; 25 μg of collagenase type I) is reported as “had no effect”, the “Effect of phage treatment with thrombin on binding” value (PPC-1 cells [4]; 50 iu of thrombin) is reported as “had no effect” and the “Elevation of binding by pretreatment with uPA” value (PPC-1 cells [4]; 50 iu of uPA prior to cell binding) is reported as “more than 100 fold”. The “Binding of untreated phage to PPC-1 cells over control G7 phage” value (PPC-1 cells [4]; no protease treatment) was “did not bind” and the “Effect of trypsin treatment of phage on binding (in words)” value (PPC-1 cells [4]; trypsin) was “greatly enhanced the binding”.

In the case of `N=C(N)NC(=O)c1nc(Cl)c(N)nc1N` [Amiloride, reference compound], the “Effect on uptake of uPA-CendR qdots” value (PPC-1 cells [3]) is reported as “inhibited uptake”.

With “TKPPR [enhanced tuftsin phage, reference compound]” the “Phage binding to PPC-1 cells (in words)” value (PPC-1 cells [1]; 4° C.) was “bound”.

In the case of heparin [reference compound], the “Effect … on RPARPAR phage binding” value (PPC-1 cells [1]) is reported as “had no effect”.

With RGERPPR [RGERPPR phage] the “Phage binding to PPC-1 cells (in words)” value (PPC-1 cells [1]; 4° C.) was “robust binding and internalization” and the “Phage internalization into PPC-1 cells (in words)” value (PPC-1 cells [2]) was “robust binding and internalization”.

In the case of “RPARPAR (also: biotinylated, site not given here, on streptavidin quantum dot) [RPARPAR qdots, streptavidin quantum dots coated with biotinylated RPARPAR peptide with free C-terminus]”, the “Effect of excess qdots on G6R phage binding” value (PPC-1 cells [1]; 4° C.) is reported as “blocked”, the “Effect of preincubating cells with qdots on binding of RPARPAR, RGERPPR and RVTRPPR phage” value (PPC-1 cells [1]; 4° C.) is reported as “inhibited” and the “Effect of qdots on binding and internalization of RPARPAR phage” value (PPC-1 cells [1]; bound at 4° C., internalized at 37° C. with low pH wash) is reported as “inhibited both the binding and internalization of RPARPAR phage”. For the same molecule, the “Co-localization with NRP-1” value (PPC-1 cells [5]) was “co-localize with NRP-1 at the cell surface and inside the cells”, the “Binding and internalization … (in words)” value (PPC-1 cells [3]) was “robust binding and internalization; also recorded: bound and were internalized in a manner indistinguishable from the phage particles” and the “Time to perinuclear accumulation” value (PPC-1 cells [3]; qdots, 37° C., live cells) was 1 h. The “Time to plasma membrane association” value (PPC-1 cells [3]; qdots, 37° C., live cells) was 15 min.

With GGGGGGR [G6R phage] the “Phage binding to PPC-1 cells (in words)” value (PPC-1 cells [1]; 4° C.) was “weak phage binding”.

With D-rparpar [D-rparpar qdots] the “Binding and internalization … (in words)” value (PPC-1 cells [3]) was “greatly reduced ability to trigger uptake of quantum dots”.

CRGDKG [CRGDKG phage] was tested, and the “Internalization into PPC1 cells compared to native iRGD phage” value (PPC-1 cells [2]) was “higher ability to internalize”.

CRGDK [CRGDK phage] was tested, and the “Internalization into PPC1 cells compared to native iRGD phage” value (PPC-1 cells [2]) was “higher ability to internalize”.

For `CCN(c1nc(N)c(C(=O)N=C(N)N)nc1Cl)C(C)C` [5-(N-ethyl-N-isopropyl) amiloride, reference compound], the “Effect of endocytosis inhibitor” value (PPC-1 cells [2]) was “None of these inhibitors affected the uptake”.

`C[C@@H]1[C@H](O)[C@@H](C)/C=C/C=C/CC/C=C/C=C/C=C/C=C/C(O[C@H]2O[C@H](C)[C@@H](O)[C@H](N)[C@@H]2O)CC2O[C@](O)(CC(O)C(O)CCC(O)CC(O)CC(O)CC(=O)O[C@H]1C)CC(O)C2C(=O)O` (some centres unmarked) [nystatin, reference compound] was tested, and the “Effect of endocytosis inhibitor” value (PPC-1 cells [2]) was “None of these inhibitors affected the uptake”.

For “CG7C [CG7C control phage, reference compound]”, the “Phage internalization into PPC-1 cells (in words)” value (PPC-1 cells [2]) was “does not”.

In the case of ATWLPPR [A7R phage, reference compound], the “Phage binding to PPC-1 cells (in words)” value (PPC-1 cells [1]; 4° C.) is reported as “bound”.

With “RPARSGRSAGGSVA (also: biotinylated, site not given here, on streptavidin quantum dot) [uCendR qdots]” the “Internalization of untreated qdots” value (PPC-1 cells [3]; no uPA treatment) was “are not internalized”, the “Internalization of qdots after uPA treatment” value (PPC-1 cells [3]) was “triggers internalization” and the “Internalization of qdots after uPA treatment” value (PPC-1 cells [3]; listed as RPARSGRSAGGSVA qdots) was “internalized in uPA sensitive fashion”.

RPAR [RPAR phage] was tested, and the “Effect of UV-inactivated phage on CRGDK phage internalization” value (PPC-1 cells [2]; pre-incubation, various concentrations) was “inhibited by RPAR phage in a dose-dependent fashion”.

For `CN(C)CCCN1c2ccccc2Sc2ccc(Cl)cc21` [chloropromazine, reference compound], the “Effect of endocytosis inhibitor” value (PPC-1 cells [2]) was “None of these inhibitors affected the uptake”.

B1: heparinase III: enzyme used for digestion of cell surface glycosaminoglycans (protein, UniProt Q59289 25-659, looked up)
Heparin-sulfate lyase: QSSSITRKDFDHINLEYSGLEKVNKAVAAGNYDDAAKALLAYYREKSKAREPDFSNAEKPADIRQPIDKVTREMADKALVHQFQPHKGYGYFDYGKDINWQMWPVKDNEVRWQLHRVKWWQAMALVYHATGDEKYAREWVYQYSDWARKNPLGLSQDNDKFVWRPLEVSDRVQSLPPTFSLFVNSPAFTPAFLMEFLNSYHQQADYLSTHYAEQGNHRLFEAQRNLFAGVSFPEFKDSPRWRQTGISVLNTEIKKQVYADGMQFELSPIYHVAAIDIFLKAYGSAKRVNLEKEFPQSYVQTVENMIMALISISLPDYNTPMFGDSWITDKNFRMAQFASWARVFPANQAIKYFATDGKQGKAPNFLSKALSNAGFYTFRSGWDKNATVMVLKASPPGEFHAQPDNGTFELFIKGRNFTPDAGVFVYSGDEAIMKLRNWYRQTRIHSTLTLDNQNMVITKARQNKWETGNNLDVLTYTNPSYPNLDHQRSVLFINKKYFLVIDRAIGEATGNLGVHWQLKEDSNPVFDKTKNRVYTTYRDGNNLMIQSLNADRTSLNEEEGKVSYVYNKELKRPAFVFEKPKKNAGTQNFVSIVYPYDGQKAPEISIRENKGNDFEKGKLNLTLTINGKQQLVLVP
In the case of B1, the “Effect … on RPARPAR phage binding” value (PPC-1 cells [1]) is reported as “had no effect”.
